Measurements as given in patent US9695155B2, “Herbicidal substituted pyrimidinyloxy benzene compounds” (E. I. DU PONT DE NEMOURS AND COMPANY, priority 2013, dated 2017).

Tests used:
[1] = test system: ragweed; assay: Test A preemergence; assay type: in vivo, Ambrosia elatior
Outline: (§1)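 Compounds in non-phytotoxic solvent with surfactant applied as soil spray preemergence, or postemergence to plants 2-10 cm at one- to two-leaf stage, in loam/sand. After approximately 10 days in greenhouse, injury rated visually versus untreated controls, 0 (no effect) to 100 (complete control).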

[2] = test system: ragweed; assay: Test A postemergence; assay type: in vivo, Ambrosia elatior; settings: for Ragweed plant response rating: 125 g ai/ha
Outline: as §1

[3] = test system: Italian ryegrass; assay: Test A postemergence; assay type: in vivo, Lolium multiflorum; settings: for Ryegrass, Italian plant response rating: 125 g ai/ha
Outline: as §1

[4] = test system: galium; assay: Test A postemergence; assay type: in vivo, Galium aparine
Outline: as §1

[5] = 31 g ai/ha, 0 to 100 scale where 0 is no effect and 100 is complete control, visual, approximately 10 days
[6] = 125 g ai/ha, 0 to 100 scale where 0 is no effect and 100 is complete control
[7] = 31 g ai/ha, 0 to 100 scale, 0 no effect, 100 complete control
[8] = 0 to 100 scale where 0 is no effect and 100 is complete control
[9] = 1000 g ai/ha, 0 to 100 scale, 0 no effect, 100 complete control
[10] = 500 g ai/ha, 0 to 100 scale where 0 is no effect and 100 is complete control

Row | Compound | Plant response rating, Ragweed [1, 5] | Plant response rating, Ragweed [1, 6] | Plant response rating, Ragweed [2, 7] | Ragweed plant response rating [2, 8] | Plant response rating, Ryegrass, Italian [3, 7] | Ryegrass, Italian plant response rating [3, 8] | Plant response rating, Galium [4, 7] | Galium plant response rating [4, 6] | Ragweed plant response rating ([1]; 1000 g ai/ha, 0 to 100 scale, 0 no effect, 100 complete control, approx. 10 days) | Plant response rating, Ragweed [2, 9] | Plant response rating, Ryegrass, Italian [3, 9] | Plant response rating, Galium [4, 9] | Ragweed plant response rating [1, 10] | Plant response rating, Ragweed [2, 10] | Plant response rating, Ryegrass, Italian [3, 10] | Plant response rating, Galium [4, 6] | Plant response rating, Galium [4, 10]
1 | FCc1cccc(Oc2ncc(F)cn2)c1-n1cc(I)cn1 [Compound 152] | 20 | 40 | 20 | 20 | 0 | 20 | 90 | 90 |  |  |  |  |  |  |  |  | 
2 | FCc1cn(-c2ccccc2Oc2ncc(Cl)cn2)nn1 [Compound 123] |  |  |  |  |  |  |  |  | 90 | 100 | 90 | 100 |  |  |  |  | 
3 | Clc1cnc(Oc2cccc(Br)c2-n2cc(I)nn2)nc1 [Compound 117] |  | 20 |  |  |  |  |  |  |  |  |  |  | 60 | 100 | 90 | 100 | 100
4 | N#Cc1cnn(-c2c(Br)cccc2Oc2ncc(Cl)cn2)c1 [Compound 140] | 30 | 70 | 60 | 70 | 0 | 30 | 80 | 90 |  |  |  |  |  |  |  |  | 
